This is an account of results in paper PMC10443802, “Targeting a xenobiotic transporter to ameliorate vincristine-induced sensory neuropathy” (JCI Insight, 2023).

The test system of series [1] is mice. Conditions: for Protection against treatment-related mechanical allodynia by OATP1B2 deficiency: mouse, in vivo.
The target of series [2] is T1, mOATP1B2 (Mus musculus, UniProt Q9JJL3).
T1 sequence (Q9JJL3 1-689): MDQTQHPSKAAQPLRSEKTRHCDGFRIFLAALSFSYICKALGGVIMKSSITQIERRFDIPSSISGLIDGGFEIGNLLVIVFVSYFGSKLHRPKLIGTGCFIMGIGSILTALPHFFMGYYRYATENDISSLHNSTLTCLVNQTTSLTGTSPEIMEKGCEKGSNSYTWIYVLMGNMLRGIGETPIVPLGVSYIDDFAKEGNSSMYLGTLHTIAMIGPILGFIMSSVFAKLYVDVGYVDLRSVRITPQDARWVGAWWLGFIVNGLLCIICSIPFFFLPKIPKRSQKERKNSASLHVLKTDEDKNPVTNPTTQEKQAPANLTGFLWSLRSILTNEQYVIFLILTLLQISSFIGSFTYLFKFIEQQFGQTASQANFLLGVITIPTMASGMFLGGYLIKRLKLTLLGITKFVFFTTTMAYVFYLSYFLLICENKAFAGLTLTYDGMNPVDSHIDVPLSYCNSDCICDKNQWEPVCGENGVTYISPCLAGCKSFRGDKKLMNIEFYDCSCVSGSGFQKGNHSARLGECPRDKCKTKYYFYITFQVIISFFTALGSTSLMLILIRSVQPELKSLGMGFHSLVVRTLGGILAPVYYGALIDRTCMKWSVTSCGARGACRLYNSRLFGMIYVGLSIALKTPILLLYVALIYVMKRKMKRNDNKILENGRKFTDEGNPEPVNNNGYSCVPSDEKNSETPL
The experiment in a line: Inhibition of EβG uptake in HEK293 cells overexpressing mOATP1B2. The series is classed as cell-based.

Series [3] addresses T1, mOATP1B2. The series can be described thus: Inhibition of vincristine uptake in HEK293 cells overexpressing mOATP1B2. The series is classed as cell-based.
A further series relates to OATP1B-type transporters. The settings on record: cited from earlier work.
Series [4] concerns mice. Conditions: cited from earlier work.
Series [5] concerns the target T2, hOATP1B1 (Homo sapiens, UniProt Q9Y6L6).
T2 sequence (Q9Y6L6 1-691): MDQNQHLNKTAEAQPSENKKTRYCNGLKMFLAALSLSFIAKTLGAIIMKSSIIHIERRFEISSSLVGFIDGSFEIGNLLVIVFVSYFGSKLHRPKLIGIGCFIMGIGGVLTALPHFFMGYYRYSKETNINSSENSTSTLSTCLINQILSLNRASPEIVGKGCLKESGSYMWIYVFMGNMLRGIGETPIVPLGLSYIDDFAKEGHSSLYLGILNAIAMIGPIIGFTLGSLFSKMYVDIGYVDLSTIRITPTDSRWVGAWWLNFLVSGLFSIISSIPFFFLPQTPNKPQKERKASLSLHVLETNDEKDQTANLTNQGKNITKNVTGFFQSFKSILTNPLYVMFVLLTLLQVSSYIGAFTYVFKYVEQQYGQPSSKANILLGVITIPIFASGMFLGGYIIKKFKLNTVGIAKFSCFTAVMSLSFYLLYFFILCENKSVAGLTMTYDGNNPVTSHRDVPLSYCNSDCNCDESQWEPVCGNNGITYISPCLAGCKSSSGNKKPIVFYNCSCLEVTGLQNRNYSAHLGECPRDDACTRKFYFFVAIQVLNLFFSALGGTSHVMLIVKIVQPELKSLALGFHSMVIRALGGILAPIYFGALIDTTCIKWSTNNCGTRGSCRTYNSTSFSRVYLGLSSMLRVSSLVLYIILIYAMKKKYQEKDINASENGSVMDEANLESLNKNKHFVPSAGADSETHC
The experiment in a line: Inhibition of vincristine uptake in HEK293 cells overexpressing hOATP1B1. Conditions: inhibitor 15 min pre-treatment.

Series [6] concerns the target T3, hOATP1B3 (Homo sapiens, UniProt Q9NPD5).
T3 sequence (Q9NPD5 1-702): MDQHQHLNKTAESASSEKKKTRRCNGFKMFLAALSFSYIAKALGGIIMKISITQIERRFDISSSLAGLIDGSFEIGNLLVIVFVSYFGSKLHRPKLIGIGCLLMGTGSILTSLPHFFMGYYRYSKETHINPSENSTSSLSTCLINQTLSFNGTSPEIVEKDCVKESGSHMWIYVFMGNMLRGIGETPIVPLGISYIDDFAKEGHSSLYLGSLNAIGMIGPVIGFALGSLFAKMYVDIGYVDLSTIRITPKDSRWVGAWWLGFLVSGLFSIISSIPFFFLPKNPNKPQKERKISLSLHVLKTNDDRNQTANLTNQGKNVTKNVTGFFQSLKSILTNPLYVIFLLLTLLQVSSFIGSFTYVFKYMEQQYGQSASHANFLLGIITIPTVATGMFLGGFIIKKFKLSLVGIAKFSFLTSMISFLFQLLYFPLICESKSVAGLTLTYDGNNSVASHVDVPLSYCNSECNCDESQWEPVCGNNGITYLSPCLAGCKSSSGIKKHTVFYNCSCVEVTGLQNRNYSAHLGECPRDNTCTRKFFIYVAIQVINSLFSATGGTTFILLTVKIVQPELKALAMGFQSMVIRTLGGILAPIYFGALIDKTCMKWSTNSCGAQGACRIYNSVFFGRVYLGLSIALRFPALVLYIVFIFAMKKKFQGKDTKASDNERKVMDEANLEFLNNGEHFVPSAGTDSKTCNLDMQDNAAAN
The series can be described thus: Inhibition of vincristine uptake in HEK293 cells overexpressing hOATP1B3. The settings on record: inhibitor 15 min pre-treatment.

Series [7] has as its target T2, hOATP1B1. The experiment in a line: Inhibition of EβG uptake in HEK293 cells overexpressing hOATP1B1. Conditions: inhibitor 10 μM, 15-min pre-incubation.
Series [8] addresses T3, hOATP1B3. The series can be described thus: Inhibition of EβG uptake in HEK293 cells overexpressing hOATP1B3. The settings on record: HEK293 hOATP1B3; inhibitor 10 μM, 15-min pre-incubation.
A further series relates to OATP1B2. The series can be described thus: Plasma level and DRG/plasma ratio of α-tocopherol in mice (biomarker of OATP1B2 function). The series is classed as in vivo, mouse.
The mark [9] stands for this setting: mOATP1B2, in presence of alpha-tocopherol.

Where “and” joins values, the source holds several entries; their conditions need not be identical. Equal entries are not always repeated. Where two headings read alike, the source gives them in different places.

For the compound `C=C1C[C@@H]2CC[C@@]34C[C@H]5O[C@H]6[C@@H](O3)[C@H]3O[C@H](CC[C@@H]3O[C@H]6[C@H]5O4)CC(=O)C[C@@H]3[C@@H](OC)[C@@H](C[C@H](O)CN)O[C@H]3C[C@H]3O[C@@H](CC[C@@H]1O2)C[C@@H](C)C3=C` [Eribulin, eribulin], in the series with mice [1] (DBA/1LacJ), the “Protection against treatment-related mechanical allodynia by OATP1B2 deficiency” value (“Protection … by OATP1B2 deficiency” for short) is “independently of OATP1B2”.

With `Cc1c(C)c2c(c(C)c1O)CC[C@@](C)(CCC[C@H](C)CCC[C@H](C)CCCC(C)C)O2` [alpha-tocopherol], at mOATP1B2 [2] (setting [9]), the “EβG uptake (% of vehicle)” value is 113.612% and 99.0126% and 119.375% and 118.704% and 95.6597% and 100.791%. Besides, the “Vincristine uptake (% of vehicle)” value on mOATP1B2 [3] (setting [9]) was 51.7599% and 63.6149% and 58.7604%.

Take `OCCN(CCO)c1nc(N2CCCCC2)c2nc(N(CCO)CCO)nc(N3CCCCC3)c2n1` [Dipyridamole, dipyridamole]: in the series on OATP1B-type transporters, the “Inhibitory potency against OATP1B-type transporters” value was “moderate inhibitory potency”. Further, in the series with mice [4], the “Protection against VIPN” value is “partially protected against VIPN in mice”.

Consider `CC(=O)O[C@@]12CO[C@@H]1C[C@H](O)[C@@]1(C)C(=O)[C@H](O)C3=C(C)[C@@H](OC(=O)[C@H](O)[C@@H](NC(=O)OC(C)(C)C)c4ccccc4)C[C@@](O)([C@@H](OC(=O)c4ccccc4)[C@H]21)C3(C)C` [Docetaxel, docetaxel], for which the “Protection … by OATP1B2 deficiency” value in the series with mice [1] (DBA/1LacJ) is recorded as “independently of OATP1B2”.

Consider `C/C(=C\c1csc(C)n1)[C@@H]1C[C@@H]2O[C@]2(C)CCC[C@H](C)[C@H](O)[C@@H](C)C(=O)C(C)(C)[C@@H](O)CC(=O)N1` [Ixabepilone, ixabepilone], for which the “Protection … by OATP1B2 deficiency” value in the series with mice [1] (DBA/1LacJ) is listed as “independently of OATP1B2”.

For the compound `CO[C@H]1/C=C/O[C@@]2(C)Oc3c(C)c(O)c4c(O)c(c(/C=N/N5CCN(C)CC5)c(O)c4c3C2=O)NC(=O)/C(C)=C\C=C\[C@H](C)[C@H](O)[C@@H](C)[C@@H](O)[C@@H](C)[C@H](OC(C)=O)[C@@H]1C` [Rifampicin, rifampicin], the “Vincristine uptake (% of vehicle)” value on hOATP1B1 [5] is 68.5513 % of vehicle and 91.3571 % of vehicle and 64.0921 % of vehicle; on hOATP1B3 [6], 68.0365 % of vehicle and 67.1426 % of vehicle and 57.6334 % of vehicle and 46.0272 % of vehicle and 55.4053 % of vehicle and 65.8991 % of vehicle; at mOATP1B2 [3] (HEK293 mOATP1B2, inhibitor 15 min pre-treatment) it was 69.4167 % of vehicle and 71.9856 % of vehicle and 78.1737 % of vehicle and 74.3324 % of vehicle and 63.8503 % of vehicle and 67.3213 % of vehicle. Besides, the “EβG uptake (% of vehicle)” value is 9.089 % of vehicle and 9.168 % of vehicle and 8.011 % of vehicle at mOATP1B2 [2] (HEK293 mOATP1B2, inhibitor 10 μM, 15-min pre-incubation); 26.1825 % of vehicle and 31.1005 % of vehicle and 27.1566 % of vehicle on hOATP1B1 [7]; 4.339 % of vehicle and 4.237 % of vehicle and 4.051 % of vehicle at hOATP1B3 [8]. Also, the “Level of α-tocopherol (% of wild-type baseline), DRG/Plasma Ratio” value in the series with OATP1B2 (WT mice treated with the inhibitor, DRG/plasma ratio, listed as Rifampin) was 27.9959% and 27.249% and 34.1971%. In addition, the “Level of α-tocopherol (% of wild-type baseline), Plasma” value in the series with OATP1B2 (WT mice treated with the inhibitor, plasma, listed as Rifampin) was 236.636% and 352.754% and 217.386%. Further, in the series with OATP1B2 (WT mice, 2 hours after rifampin 20 mg/kg i.p.), the “Level of α-tocopherol (% of wild-type baseline), relative DRG/plasma ratio” value was 27.9959 % of wild-type baseline and 27.249 % of wild-type baseline and 34.1971 % of wild-type baseline. Moreover, the “Protective effect against VIPN (mechanical allodynia)” value in the series on mice [1] (rifampin pretreatment 20 mg/kg, single vincristine 1 mg/kg, wild-type mice) was “could be replicated with pretreatment of orally administered rifampin”.

As to `CC(=O)O[C@H]1C(=O)[C@@]2(C)[C@H]([C@H](OC(=O)c3ccccc3)[C@]3(O)C[C@H](OC(=O)[C@H](O)[C@@H](NC(=O)c4ccccc4)c4ccccc4)C(C)=C1C3(C)C)[C@]1(OC(C)=O)CO[C@@H]1C[C@@H]2O` [Paclitaxel, paclitaxel], the “Protection … by OATP1B2 deficiency” value in the series with mice [1] was “protection against treatment-related mechanical allodynia was only observed”.

As for `CCC1=C[C@@H]2CN(C1)Cc1c([nH]c3ccccc13)[C@@](C(=O)OC)(c1cc3c(cc1OC)N(C)[C@H]1[C@@](O)(C(=O)OC)[C@H](OC(C)=O)[C@]4(CC)C=CCN5CC[C@]31[C@@H]54)C2` [Vinorelbine, vinorelbine], the “Protection … by OATP1B2 deficiency” value with mice [1] (DBA/1LacJ) was “independently of OATP1B2”.
